We go through three compounds from publication PMC5116089, “Sulfheme formation during homocysteine S-oxygenation by catalase in cancers and neurodegenerative diseases” (Nature Communications, 2016).

This assay deals with T1, Bovine liver catalase (Bos taurus, UniProt P00432).
T1 construct: Bovine liver catalase was also purchased from Sigma-Aldrich; purchased Sigma-Aldrich; host or cells: bovine liver
T1 sequence (P00432 2-527 limits assumed): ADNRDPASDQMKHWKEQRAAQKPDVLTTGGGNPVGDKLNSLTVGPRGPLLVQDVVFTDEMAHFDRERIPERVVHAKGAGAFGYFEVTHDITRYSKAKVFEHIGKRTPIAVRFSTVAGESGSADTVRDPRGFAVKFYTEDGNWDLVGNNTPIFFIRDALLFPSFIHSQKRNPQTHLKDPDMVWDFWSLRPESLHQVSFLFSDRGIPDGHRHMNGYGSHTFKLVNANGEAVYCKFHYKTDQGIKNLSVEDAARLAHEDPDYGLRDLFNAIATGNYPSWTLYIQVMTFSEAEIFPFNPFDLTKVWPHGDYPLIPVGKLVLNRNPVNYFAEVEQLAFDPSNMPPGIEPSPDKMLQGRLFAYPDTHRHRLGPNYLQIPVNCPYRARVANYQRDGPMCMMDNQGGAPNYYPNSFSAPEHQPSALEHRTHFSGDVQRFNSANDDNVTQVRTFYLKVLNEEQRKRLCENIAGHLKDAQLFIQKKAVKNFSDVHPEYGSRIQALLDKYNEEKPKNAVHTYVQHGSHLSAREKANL
The assay is described as follows: Ultraviolet-visible spectral changes and HPLC-MS of extracted heme after reaction of CAT with thiols. Format: biochemical. As for the experimental part:
Ultraviolet–visible spectra were recorded on a Cary 300 Scan or an Uvikon 941 spectrophotometer equipped with a temperature equilibrating water bath (±1 °C). Spectral changes over time were recorded when CAT was incubated with L-HCys (0.2 or 2 mM), L-Cys (0.2, 2 or 9 mM) or GSH (1 or 30 mM) at 25 °C in a 1 ml quartz cuvette containing a solution of CAT (2.7–5.9 μM) in 50 mM KPi, pH 7.4±1 mM DTPA. Due to half-site reactivity of biological thiols with CAT, the data were recorded versus a blank containing half the concentrations of CAT used in the experiments, that is, a solution of 1.35–2.95 μM CAT in 50 mM KPi at pH 7.4±1 mM DTPA. Reactions were initiated by addition of the thiol-containing compounds. Comparative kinetic studies were performed by incubating CAT ([…] in the experiment, 1.35–1.5 μM in the blank) with 2 mM L-HCys in 50 mM KPi, pH 7.4, 1 mM DTPA with or without […], 5,5-dimethyl-1,3-cyclohexanedione (dimedone, 4 mM), BCN (0.1 mM) or SOD, 40 U). All the experiments were performed at least in duplicate.
HPLC–MS or –HRMS spectra of the prosthetic heme-iron group were recorded on a Thermo-Finnigan Surveyor or a Thermos Fisher Accela equipped with an XTerra MS C18 3.5 μm (2.1 × 50 mm) and a pre-guard column coupled to an ESI LCQ Advantage or an Exactive orbitrap spectrometer, respectively. The prosthetic heme group was extracted on ice by incubating a solution of CAT (5–8 μM) with 1.65 volume of 50 mM Gly-HCl pH 2.0 and 2.65 vol of butan-2-one kept a −20 °C. After vigorous mixing and a short centrifugation step (13,000 r.p.m., 4 °C, 30 s), the upper organic phase was quickly removed and mixed with a solution of 2 M imidazole (10% v/v) to stabilize the extracted cofactor and permit analysis. […] Control experiments (CAT, thiol-compounds and additives alone as well CAT and additives or thiol-compounds and additives) were performed in each instance and analysed in parallel.

With `N[C@@H](CS)C(=O)O` [Cys, cysteine], the “heme-iron species formed from CAT” value (physiological concentration of Cys (200 μM) in the presence of iron, no DTPA) was “only leads to the reversible formation of compound II”.
Turning to `N[C@@H](CCC(=O)N[C@@H](CS)C(=O)NCC(=O)O)C(=O)O` [GSH, glutathione], the “heme-iron species formed from CAT” value (GSH (30 mM)) was “compound II formation was only observed”.
Regarding `NC(CCS)C(=O)O` (stereo not drawn) [HCys, homocysteine], the “heme-iron species formed from CAT” value (2 mM HCys, 1 mM DTPA, pH 7.4, 25 °C) is recorded as “induces the production of a sulfheme species”.
